{"source": "patent US20250248960A1", "about": "“Methods for Providing Rapid Relief of Motor Fluctuations in a Parkinson's Disease Patient” (priority 2012, published 2025)", "tested_on": "Parkinson's disease patients", "experiment": "Phase 2 study: plasma levodopa concentrations compared to UPDRS scores (off/on state)", "assay_type": "in vivo, human", "details": "plasma levels vs UPDRS scores, FIG. 8", "experimental": "The twenty four (24) patients treated in this study underwent serial evaluations of L-dopa plasma levels, motor response, and safety at each visit. The patients were administered the study drug in the OFF state with the serial evaluations starting prior to dosing and continuing for up to 180 minutes post-dose. Motor function was measured using a tapping test, the Unified Parkinson's Disease Rating Scale Part III (UPDRS III), and subjective evaluation of “meaningful” ON and OFF. Safety parameters monitored included pulmonary function, clinical laboratory data, EGCs, and vital signs (blood pressure, heart rate, and orthostatic blood pressure). This study was designed to measure the time, magnitude, and durability of pulmonary levodopa's effect on motor function, to evaluate the safety and tolerability of pulmonary levodopa in Parkinson's disease patients.\nIn FIG. 8, patient's plasma levodopa concentrations are being compared to UPDRS scores. UPDRS is a standard test for Parkinson's disease patients to test their response to drug treatment and their disease progression. […] As little as 200-400 ng/ml of levodopa plasma concentration makes the difference between being in the off state and being in the on state. […]"}
{"smiles": "N[C@@H](Cc1ccc(O)c(O)c1)C(=O)O", "note": "[L-Dopa, levodopa]", "values": [{"measurement": "levodopa plasma concentration difference between being in the off state and being in the on state", "result": "200 to 400", "unit": "ng/mL"}]}
